The values below are quoted from earlier work in patent US8895055B2, “Telodendrimer nanodiscs without apolipoprotein” (The Regents of the University of California, priority 2011, dated 2014).

Take `C[C@@H]1[C@H](O)[C@@H](C)/C=C/C=C/C=C/C=C/C=C/C=C/C=C/[C@H](O[C@@H]2O[C@H](C)[C@@H](O)[C@H](N)[C@@H]2O)C[C@@H]2O[C@](O)(C[C@@H](O)C[C@@H](O)[C@H](O)CC[C@@H](O)C[C@@H](O)CC(=O)O[C@H]1C)C[C@H](O)[C@H]2C(=O)O` [Amphotericin B]: the solubility in water entry is recorded as “poorly soluble in water”.
